In patent US9963445B2, “Chemical compounds” (SYNGENTA PARTICIPATIONS AG, priority 2013, dated 2018):

Columns and labels:
Assay type in all cases: in vivo
Amaranthus retroflexus [1] = test: Post-emergence herbicidal activity, glasshouse pot test; design: key: 0 = no damage to plant, 5 = total damage to plant; details: Application post-emergence, rate 1000 g/ha, evaluated after 13 days
Summary of the method: (§1)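 Test solution: technical active ingredient in acetone/water (50:50) containing 0.5% Tween 20, applied as an aqueous spray to 8-day-old plants. Evaluation at 13 days, 0–5 damage scale.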

Abutilon theophrasti [2] = test: as above; design: key: 0 = no damage to plant, 5 = total damage to plant; details: Application post-emergence, rate 1000 g/ha, evaluated after 13 days
Summary of the method: as §1

zea mays [3] = test: as above; design: key: 0 = no damage to plant, 5 = total damage to plant; details: Application post-emergence, rate 1000 g/ha, evaluated after 13 days
Summary of the method: as §1

Echinochloa crus-galli [4] = test: as above; design: key: 0 = no damage to plant, 5 = total damage to plant; details: Application post-emergence, rate 1000 g/ha, evaluated after 13 days
Summary of the method: as §1

Setaria faberi [5] = test: as above; design: key: 0 = no damage to plant, 5 = total damage to plant; details: Application post-emergence, rate 1000 g/ha, evaluated after 13 days
Summary of the method: as §1

Alopecurus myosuroides [6] = test: as above; design: key: 0 = no damage to plant, 5 = total damage to plant; details: Application post-emergence, rate 1000 g/ha, evaluated after 13 days
Summary of the method: as §1

Amaranthus retroflexus [7] = test: Pre-emergence herbicidal activity, glasshouse pot test; details: pre-emergence spray, rate 1000 g/ha, evaluated after 13 days, scale 0-5
Summary of the method: (§2)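 Pots of seeded soil were sprayed one day after sowing (pre-emergence) with compound formulated in acetone/water 50:50 with 0.5% Tween 20. Plants were grown in a glasshouse at 24/16 °C day/night, 14 h light, 65% humidity. Damage was scored after 13 days on a 0–5 scale (5 = total damage).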

Abutilon theophrasti [8] = test: as above; details: pre-emergence spray, rate 1000 g/ha, evaluated after 13 days, scale 0-5
Summary of the method: as §2

zea mays [9] = test: as above; details: pre-emergence spray, rate 1000 g/ha, evaluated after 13 days, scale 0-5
Summary of the method: as §2

Echinochloa crus-galli [10] = test: as above; details: pre-emergence spray, rate 1000 g/ha, evaluated after 13 days, scale 0-5
Summary of the method: as §2

Setaria faberi [11] = test: as above; details: pre-emergence spray, rate 1000 g/ha, evaluated after 13 days, scale 0-5
Summary of the method: as §2

Alopecurus myosuroides [12] = test: as above; details: pre-emergence spray, rate 1000 g/ha, evaluated after 13 days, scale 0-5
Summary of the method: as §2

Row | Structure (SMILES) | AMARE herbicidal damage score (Amaranthus retroflexus [1]) | ABUTH herbicidal damage score (Abutilon theophrasti [2]) | ZEAMX herbicidal damage score (zea mays [3]) | ECHCG herbicidal damage score (Echinochloa crus-galli [4]) | SETFA herbicidal damage score (Setaria faberi [5]) | ALOMY herbicidal damage score (Alopecurus myosuroides [6]) | AMARE damage score, application pre-emergence (Amaranthus retroflexus [7]) | ABUTH damage score, application pre-emergence (Abutilon theophrasti [8]) | ZEAMX damage score, application pre-emergence (zea mays [9]) | ECHCG damage score, application pre-emergence (Echinochloa crus-galli [10]) | SETFA damage score, application pre-emergence (Setaria faberi [11]) | ALOMY damage score, application pre-emergence (Alopecurus myosuroides [12])
1 | CC1=C(Cl)C(=O)N(c2cc(C(F)(F)F)c(-c3ccc(C#N)cc3)cn2)C1O (stereo not drawn) [AF93] | 5 | 4 | 2 | 4 | 4 | 4 | 2 | 1 | 0 | 0 | 0 | 0
2 | CC(C)=C(C)c1cnc(N2C(=O)C(Cl)=C(C)C2O)cc1C(F)(F)F (stereo not drawn) [AF2] | 5 | 5 | 1 | 5 | 5 | 4 | 3 | 1 | 0 | 3 | 4 | 0
3 | CCN(C)c1cc(N2C(=O)C(Cl)=C(C)C2O)ncn1 (stereo not drawn) [CF16] | 3 | 3 | 1 | 5 | 5 | 4 | 2 | 2 | 1 | 2 | 4 | 1
4 | COC1=C(C)C(O)N(c2ccc([N+](=O)[O-])cn2)C1=O (stereo not drawn) [AI29] | 0 | 0 | 1 | 0 | 0 | 0 | 2 | 0 | 0 | 0 | 1 | 1
5 | CC(C)(C)C1=C(Cl)C(=O)N(c2cc(C(F)(F)F)ccn2)C1O (stereo not drawn) [AF82] | 0 | 0 | 2 | 3 | 0 | 0 | 0 | 0 | 1 | 0 | 0 | 0
6 | CCC1=C(Br)C(=O)N(c2cc(C(C)(C)C#N)ncn2)C1O (stereo not drawn) [CG2] | 5 | 5 | 5 | 5 | 5 | 5 | 4 | 5 | 2 | 4 | 3 | 2
7 | CC1=C(Cl)C(=O)N(c2nccc(C(F)(F)F)n2)C1O (stereo not drawn) [DF1] | 5 | 5 | 4 | 5 | 5 | 4 | 5 | 4 | 2 | 4 | 4 | 4
8 | CC1=C(Cl)C(=O)N(c2cc(C#N)ccn2)C1O (stereo not drawn) [AF50] | 1 | 5 | 2 | 5 | 5 | 5 | 0 | 0 | 0 | 0 | 1 | 2
9 | COC1=C(C)C(O)N(c2ccc(N)cn2)C1=O (stereo not drawn) [AI28] | 1 | 1 | 1 | 1 | 1 | 1 | 1 | 2 | 1 | 0 | 1 | 1
10 | CC1=C(Cl)C(=O)N(c2cc(C(C)F)ccn2)C1O (stereo not drawn) [AF40] | 5 | 5 | 5 | 5 | 4 | 3 | 5 | 5 | 2 | 4 | 5 | 2
11 | C=C(OCC)c1nnc(N2C(=O)C(OC)=C(C)C2O)cc1C(C)(F)F (stereo not drawn) [BI19] | 5 | 5 | 3 | 5 | 4 | 4 | 5 | 5 | 2 | 5 | 3 | 3
12 | CC1=C(Cl)C(=O)N(c2ncc(F)cc2F)C1O (stereo not drawn) [AF62] | 0 | 2 | 0 | 1 | 1 | 1 | 2 | 2 | 0 | 0 | 0 | 0
